Reference: the supplement of paper PMC10307832

compound: CN1CCN(CC1)C2=CC(=C(C=C2)NC3=NC=C4C(=N3)N(C5=CC=CC=C5C(=O)N4C)C)OC [XMD8-85] + C[C@@H](Oc1cc(-c2cnn(C3CCNCC3)c2)cnc1N)c1c(Cl)ccc(F)c1Cl [Crizotinib] (partner 1 µM); assay: relative viability (nuclei count vs DMSO), 5 days (fraction); higher = more cells survive; conditions: first compound 0.08 µM
How it was run: (§1)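 Relative viability divides the nuclei count in treated wells by that in vehicle wells. Lung cancer cell lines were seeded in 1536-well plates, dosed by pin tool the next day, and fixed and stained after 5 days in one step with final 0.05% Triton X-100, 1% formaldehyde and 1 ug/ml Hoechst. Dosing was a single drug or a fixed anchor-drug dose plus five library-drug doses (not always all listed) in √10 steps, and values are medians of duplicate plates imaged at 4×.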

| Cell Line | relative viability |
| --- | --- |
| NCI-H1563 | 0.931 |
| NCI-H1651 | 0.924 |
| NCI-H1666 | 0.789 |
| NCI-H1734 | 0.614 |
| NCI-H1755 | 0.901 |
| NCI-H1915 | 1.06 |
| NCI-H1944 | 1.02 |
| NCI-H1975 | 1.08 |
| NCI-H1993 | 0.783 |
| NCI-H2009 | 1.03 |
| NCI-H2023 | 0.578 |
| NCI-H2085 | 0.76 |
| NCI-H2087 | 0.821 |
| NCI-H2126 | 1.02 |
| NCI-H2228 | 0.454 |
| NCI-H2347 | 0.696 |
| NCI-H2405 | 0.829 |
| NCI-H3122 | 0.261 |
| PC-3 [JPC-3] | 0.827 |
| PC-14 | 0.867 |
| RERF-LC-KJ | 0.881 |
| SK-LU-1 | 0.568 |
| SK-MES-1 | 0.964 |
| SW 1573 | 0.817 |
| UMC-11 | 0.656 |

same assay, conditions: first compound 0.253 µM

| Cell Line | relative viability |
| --- | --- |
| NCI-H1563 | 0.812 |
| NCI-H1651 | 0.855 |
| NCI-H1666 | 0.917 |
| NCI-H1734 | 0.646 |
| NCI-H1755 | 0.978 |
| NCI-H1915 | 0.909 |
| NCI-H1944 | 0.999 |
| NCI-H1975 | 0.827 |
| NCI-H1993 | 0.77 |
| NCI-H2009 | 0.981 |
| NCI-H2023 | 0.627 |
| NCI-H2085 | 0.738 |
| NCI-H2087 | 0.857 |
| NCI-H2126 | 0.974 |
| NCI-H2228 | 0.442 |
| NCI-H2347 | 0.785 |
| NCI-H2405 | 0.815 |
| NCI-H3122 | 0.258 |
| PC-3 [JPC-3] | 1.12 |
| PC-14 | 0.874 |
| RERF-LC-KJ | 0.751 |
| SK-LU-1 | 0.892 |
| SK-MES-1 | 1.03 |
| SW 1573 | 0.705 |
| UMC-11 | 0.497 |

same assay, conditions: first compound 0.8 µM

| Cell Line | relative viability |
| --- | --- |
| NCI-H1563 | 0.72 |
| NCI-H1651 | 0.822 |
| NCI-H1666 | 1.35 |
| NCI-H1734 | 0.724 |
| NCI-H1755 | 0.892 |
| NCI-H1915 | 0.943 |
| NCI-H1944 | 1.3 |
| NCI-H1975 | 1.07 |
| NCI-H1993 | 0.869 |
| NCI-H2009 | 1.1 |
| NCI-H2023 | 0.705 |
| NCI-H2085 | 0.795 |
| NCI-H2087 | 0.994 |
| NCI-H2126 | 1.02 |
| NCI-H2228 | 0.521 |
| NCI-H2347 | 0.749 |
| NCI-H2405 | 0.769 |
| NCI-H3122 | 0.274 |
| PC-3 [JPC-3] | 1.01 |
| PC-14 | 0.834 |
| RERF-LC-KJ | 0.807 |
| SK-LU-1 | 1.07 |
| SK-MES-1 | 0.94 |
| SW 1573 | 0.822 |
| UMC-11 | 0.638 |

same assay, conditions: first compound 2.53 µM

| Cell Line | relative viability |
| --- | --- |
| NCI-H1563 | 0.841 |
| NCI-H1651 | 0.836 |
| NCI-H1666 | 1.31 |
| NCI-H1734 | 0.577 |
| NCI-H1755 | 0.939 |
| NCI-H1915 | 0.998 |
| NCI-H1944 | 1.35 |
| NCI-H1975 | 0.937 |
| NCI-H1993 | 0.944 |
| NCI-H2009 | 1.06 |
| NCI-H2023 | 0.544 |
| NCI-H2085 | 0.859 |
| NCI-H2087 | 0.994 |
| NCI-H2126 | 1.06 |
| NCI-H2228 | 0.528 |
| NCI-H2347 | 0.609 |
| NCI-H2405 | 0.85 |
| NCI-H3122 | 0.329 |
| PC-3 [JPC-3] | 1.09 |
| PC-14 | 0.972 |
| RERF-LC-KJ | 0.817 |
| SK-LU-1 | 1.12 |
| SK-MES-1 | 0.923 |
| SW 1573 | 0.867 |
| UMC-11 | 0.459 |

same assay, conditions: first compound 8 µM

| Cell Line | relative viability |
| --- | --- |
| NCI-H1563 | 0.757 |
| NCI-H1651 | 0.772 |
| NCI-H1666 | 0.705 |
| NCI-H1734 | 0.368 |
| NCI-H1755 | 0.748 |
| NCI-H1915 | 0.882 |
| NCI-H1944 | 0.979 |
| NCI-H1975 | 0.352 |
| NCI-H1993 | 0.64 |
| NCI-H2009 | 0.395 |
| NCI-H2023 | 0.287 |
| NCI-H2085 | 0.559 |
| NCI-H2087 | 0.674 |
| NCI-H2126 | 1 |
| NCI-H2228 | 0.26 |
| NCI-H2347 | 0.614 |
| NCI-H2405 | 0.665 |
| NCI-H3122 | 0.331 |
| PC-3 [JPC-3] | 0.986 |
| PC-14 | 0.722 |
| RERF-LC-KJ | 0.658 |
| SK-LU-1 | 0.653 |
| SK-MES-1 | 0.61 |
| SW 1573 | 0.456 |
| UMC-11 | 0.237 |

compound: O=C(O)C(Cc1ccccc1[N+](=O)[O-])=NNc1nc(-c2ccc(Cl)c(Cl)c2)cs1 (mixture of isomers) [4EGI-1] + COc1cccc2cc(-c3nc([C@H]4CC[C@H](C(=O)O)CC4)n4ncnc(N)c34)[nH]c12 [OSI-027] (partner 0.5 µM); assay: as above; conditions: first compound 0.5 µM
How it was run: as §1

| Cell Line | relative viability |
| --- | --- |
| NCI-H1563 | 0.788 |
| NCI-H1651 | 0.845 |
| NCI-H1666 | 0.841 |
| NCI-H1734 | 0.698 |
| NCI-H1755 | 0.791 |
| NCI-H1915 | 0.623 |
| NCI-H1944 | 0.427 |
| NCI-H1975 | 0.837 |
| NCI-H1993 | 0.495 |
| NCI-H2009 | 0.765 |
| NCI-H2023 | 0.712 |
| NCI-H2085 | 0.837 |
| NCI-H2087 | 0.693 |
| NCI-H2126 | 0.721 |
| NCI-H2228 | 0.674 |
| NCI-H2347 | 0.404 |
| NCI-H2405 | 0.679 |
| NCI-H3122 | 1.27 |
| PC-3 [JPC-3] | 0.778 |
| PC-14 | 1.21 |
| RERF-LC-KJ | 0.665 |
| SK-LU-1 | 0.381 |
| SK-MES-1 | 0.704 |
| SW 1573 | 0.884 |
| UMC-11 | 0.465 |

same assay, conditions: first compound 1.581 µM

| Cell Line | relative viability |
| --- | --- |
| NCI-H1563 | 0.752 |
| NCI-H1651 | 0.565 |
| NCI-H1666 | 0.805 |
| NCI-H1734 | 0.432 |
| NCI-H1755 | 0.663 |
| NCI-H1915 | 0.448 |
| NCI-H1975 | 0.665 |
| NCI-H1993 | 0.528 |
| NCI-H2009 | 0.651 |
| NCI-H2085 | 0.777 |
| NCI-H2087 | 0.523 |
| NCI-H2126 | 0.697 |
| NCI-H2228 | 0.54 |
| NCI-H2405 | 0.557 |
| PC-3 [JPC-3] | 0.73 |
| SK-LU-1 | 0.36 |
| SK-MES-1 | 0.523 |
| SW 1573 | 0.431 |
| UMC-11 | 0.526 |

same assay, conditions: first compound 5 µM

| Cell Line | relative viability |
| --- | --- |
| NCI-H1563 | 0.85 |
| NCI-H1651 | 0.693 |
| NCI-H1666 | 0.948 |
| NCI-H1734 | 0.618 |
| NCI-H1755 | 0.693 |
| NCI-H1915 | 0.625 |
| NCI-H1944 | 0.392 |
| NCI-H1975 | 0.792 |
| NCI-H1993 | 0.627 |
| NCI-H2009 | 0.768 |
| NCI-H2023 | 0.359 |
| NCI-H2085 | 0.704 |
| NCI-H2087 | 0.656 |
| NCI-H2126 | 0.778 |
| NCI-H2228 | 0.594 |
| NCI-H2347 | 0.475 |
| NCI-H2405 | 0.677 |
| NCI-H3122 | 1.04 |
| PC-3 [JPC-3] | 0.746 |
| PC-14 | 1.15 |
| RERF-LC-KJ | 0.529 |
| SK-LU-1 | 0.356 |
| SK-MES-1 | 0.611 |
| SW 1573 | 0.703 |
| UMC-11 | 0.507 |

same assay, conditions: first compound 15.81 µM

| Cell Line | relative viability |
| --- | --- |
| NCI-H1563 | 0.736 |
| NCI-H1651 | 0.664 |
| NCI-H1666 | 0.606 |
| NCI-H1734 | 0.55 |
| NCI-H1755 | 0.713 |
| NCI-H1915 | 0.617 |
| NCI-H1944 | 0.307 |
| NCI-H1975 | 0.74 |
| NCI-H1993 | 0.611 |
| NCI-H2009 | 0.657 |
| NCI-H2023 | 0.162 |
| NCI-H2085 | 0.378 |
| NCI-H2087 | 0.438 |
| NCI-H2126 | 0.572 |
| NCI-H2228 | 0.607 |
| NCI-H2347 | 0.389 |
| NCI-H2405 | 0.698 |
| NCI-H3122 | 0.862 |
| PC-14 | 0.14 |
| RERF-LC-KJ | 0.413 |
| SK-LU-1 | 0.34 |
| SK-MES-1 | 0.548 |
| SW 1573 | 0.284 |
| UMC-11 | 0.484 |

same assay, conditions: first compound 50 µM

| Cell Line | relative viability |
| --- | --- |
| NCI-H1563 | 0.665 |
| NCI-H1651 | 0.463 |
| NCI-H1666 | 0.433 |
| NCI-H1734 | 0.23 |
| NCI-H1755 | 0.487 |
| NCI-H1915 | 0.287 |
| NCI-H1944 | 0.303 |
| NCI-H1975 | 0.391 |
| NCI-H1993 | 0.577 |
| NCI-H2009 | 0.161 |
| NCI-H2023 | 0.0791 |
| NCI-H2085 | 0.428 |
| NCI-H2087 | 0.203 |
| NCI-H2126 | 0.511 |
| NCI-H2228 | 0.13 |
| NCI-H2347 | 0.405 |
| NCI-H2405 | 0.693 |
| NCI-H3122 | 0.235 |
| PC-3 [JPC-3] | 0.498 |
| PC-14 | 0.0614 |
| RERF-LC-KJ | 0.296 |
| SK-LU-1 | 0.174 |
| SK-MES-1 | 0.199 |
| SW 1573 | 0.11 |
| UMC-11 | 0.284 |

compound: CN1CCN(CC1)C2=CC(=C(C=C2)NC3=NC=C4C(=N3)N(C5=CC=CC=C5C(=O)N4C)C)OC [XMD8-85] + CS(=O)(=O)CCNCc1ccc(-c2ccc3ncnc(Nc4ccc(OCc5cccc(F)c5)c(Cl)c4)c3c2)o1 [Lapatinib] (partner 2 µM); assay: as above; conditions: first compound 0.08 µM
How it was run: as §1

| Cell Line | relative viability |
| --- | --- |
| NCI-H1563 | 1.04 |
